Results taken from patent US20080214844A1, “Icaritin and desmethylicaritin as anti-cancer agents” (priority 2007, published 2008).
pEC50, pIC50: −log10 of the molar value.

Experiments:
[1] = tested on: D145; assay: MTT cell viability assay, D145; type: cell-based, human; conditions: Homo sapiens, 72 h, D145, Prostate, 3 days culture
Description: (§1) 26 cancer cell lines were grown in normal growth medium in the presence of different concentrations Icaritin or Desmethylicaritin. After culture for 3 days, the cell viability was then measured by an MTT assay. […] Some EC50s were lower than 10 uM for these two compounds. […] Whereas, normal human mammary gland epithelial cells (MCF10A) were not sensitive to Icaritin and Desmethylicaritin. These cells grew well when treated with these two compounds at a concentration of 50 uM.

[2] = tested on: HCT-116; assay: MTT cell viability assay, HCT-116; type: cell-based, human; conditions: Homo sapiens, 72 h, HCT-116, Colon, 3 days culture
Description: as §1

[3] = tested on: Widr; assay: MTT cell viability assay, Widr; type: cell-based, human; conditions: Homo sapiens, 72 h, Colon, 3 days culture
Description: as §1

[4] = tested on: HT29; assay: MTT cell viability assay, HT29; type: cell-based, human; conditions: Homo sapiens, HT-29, 72 h, HT29, Colon, 3 days culture
Description: as §1

[5] = tested on: LoVo; assay: MTT cell viability assay, LoVo; type: cell-based, human; conditions: Homo sapiens, 72 h, Colon, 3 days culture
Description: as §1

[6] = tested on: CCL-225; assay: MTT cell viability assay, CCL-225; type: cell-based, human; conditions: Homo sapiens, 72 h, CCL-225, Colon, 3 days culture
Description: as §1

[7] = tested on: NCI-H23; assay: MTT cell viability assay, NCI-H23; type: cell-based, human; conditions: Homo sapiens, 72 h, NCI-H23, Lung, 3 days culture
Description: as §1

[8] = tested on: BT-549; assay: MTT cell viability assay, BT-549; type: cell-based, human; conditions: Homo sapiens, 72 h, BT-549, Breast, 3 days culture
Description: as §1

[9] = tested on: ACHN; assay: MTT cell viability assay, ACHN; type: cell-based, human; conditions: Homo sapiens, 72 h, Kidney, 3 days culture
Description: as §1

[10] = tested on: 786-O; assay: MTT cell viability assay, 786-O; type: cell-based, human; conditions: Homo sapiens, 786-0, 72 h, Kidney, 3 days culture
Description: as §1

[11] = tested on: SN12C; assay: MTT cell viability assay, SN12C; type: cell-based, human; conditions: Homo sapiens, 72 h, Kidney, 3 days culture
Description: as §1

[12] = tested on: IGROV1; assay: MTT cell viability assay, IGROV1; type: cell-based, human; conditions: Homo sapiens, IGROV-1, 72 h, IGROV1, Ovary, 3 days culture
Description: as §1

[13] = tested on: Mid PaCa-2; assay: MTT cell viability assay, Mid PaCa-2; type: cell-based, human; conditions: Homo sapiens, 72 h, Mid PaCa-2, Pancreas, 3 days culture
Description: as §1

[14] = tested on: U-251; assay: MTT cell viability assay, U-251; type: cell-based, human; conditions: Homo sapiens, 72 h, U-251, Glioblastoma, 3 days culture
Description: as §1

[15] = tested on: SK-MEL-5; assay: MTT cell viability assay, SK-MEL-5; type: cell-based, human; conditions: Homo sapiens, 72 h, SK-MEL-5, Skin, 3 days culture
Description: as §1

[16] = tested on: LNCaP prostate cancer cells; assay: Lipogenesis: incorporation of 2-14C-labeled acetate into cellular lipids; type: cell-based; conditions: Homo sapiens, 5 h, 2-14C-acetate incorporation
Description: To investigate the ability of Icaritin and Desmethylicaritin to inhibit lipogenesis, LNCaP prostate cancer cells were treated with different concentrations of Icaritin and Desmethylicaritin for 5 h, and incorporation of 2-^14C-labeled acetate into cellular lipids was quantitated. Both of Icaritin and Desmethylicaritin inhibited lipogenesis by more than 50% at a concentration of 0.5 uM. Higher concentrations further reduced lipogenesis in a dose-dependent way. A further decline was observed after 24 h of exposure.

[17] = tested on: FAS protein levels in LNCaP cells; assay: Western blot analysis for FAS protein levels; type: cell-based, human
[18] = tested on: LNCaP cells and MDA-MB-231 cells; assay: Synthesis of lipid classes in cancer cells; type: cell-based, human
Description: Icaritin and Desmethylicaritin decrease Lipogenesis in Prostate and Breast Cancer cells via inhibition of fatty acid synthase (FAS) Activity. Protein extracts from LNCaP cells, which had been ^14C-labeled with malonyl-CoA, were pretreated with these two compounds. A concentration of 0.5 μM Icaritin or Desmethylicaritin reduced the in vitro enzymatic FAS activity to less than 50%. […] Consistent with their FAS inhibitory effect, inhibition of lipogenesis by Icaritin and Desmethylicaritin affected the synthesis of phospholipids (including phosphatidylcholine, phosphatidylethanolamine, phosphatidylinositol, phosphatidylserine, and sphingomyelin) and of triglycerides in LNCaP cells and MDA-MB-231 cells. […] Cholesterol synthesis, however, accounts for less than 10% of the total lipogenic activity in LNCaP and MDA-MB-231 cancer cells, whereas ˜75 and 15% of the lipogenic activity in these cells represents phospholipid and triglyceride synthesis, respectively.

[19] = tested on: HMVEC tube formation; assay: HMVEC tube formation on Matrigel; type: cell-based, human; conditions: 18 hours
Description: Endothelial cell tube formation in Matrigel is one measure of angiogenesis in vitro. The role of Icaritin in angiogenesis was assessed by determining the inhibition of HMVEC tube formation on Matrigel matrix plated onto 96-well plates. The HMVEC tube formation assay was performed as described previously. Briefly, 96-well plates were coated with 90 μL Matrigel (10 mg/mL, Collaborative Research) and incubated at 37° C. for 30 minutes to promote gelling. HMVECs (10,000 cells/sample) were resuspended in reduced growth medium (serum concentration 1% and 5 units/mL heparin) and added to each well with the indicated reagents in a final volume of 100 μL with different concentration of Icaritin. After 18 hours, the plates were fixed with Diff-Quik and at least four randomly selected fields per experimental condition were digitally recorded under bright-field illumination using a 10× objective. The mean additive length of all of the cords present in each optical field was measured using IPLab software and compared with controls using the Student's unpaired t test.

[20] = tested on: human colon cancer; assay: Human colon cancer xenograft model; type: in vivo
Description: (§2) ICA was extensively biotransformed and converted to at least three metabolites: Icariside II (molecule weight=514), Icaritin (molecule weight=368), and Desmethylicaritin (molecule weight=354). […] Icaritin and Desmethylicaritin have huge potentials to be developed as novel and broad anti cancer drugs.
FIG. 3. Response of Human Colon tumor to treatment with Icaritin and Desmethyliciarityn.

[21] = tested on: human prostate cancer; assay: Human prostate cancer xenograft model; type: in vivo
Description: as §2
FIG. 1. Response of Human Prostate tumor to treatment with Icaritin and Desmethyliciarityn.

[22] = tested on: estrogen receptor; conditions: mediated by the estrogen receptor; cited from earlier work

pIC50 [2]: 5.19
pIC50 [4]: 4.82
pIC50 [5]: 4.99
pIC50 [7]: 5.22
pIC50 [8]: 5.10
pIC50 [9]: 5.02
pIC50 [10]: 4.98
pIC50 [14]: 5.15
pIC50 [15]: 5.00
pEC50 ([19]; Homo sapiens, HMVEC, read-out: EC50 to inhibit HMVEC tube formation): 5.24
SMILES: COc1ccc(-c2oc3c(CC=C(C)C)c(O)cc(O)c3c(=O)c2O)cc1 [Icaritin]
pIC50 [1]: 5.03
pIC50 [3]: 4.97
pIC50 [6]: 5.06
pIC50 [11]: 4.80
pIC50 [12]: 4.96
pIC50 [13]: 5.09
inhibition at 0.5 µM [16]: > 50%
FAS protein levels (Western blot) [17]: did not influence
synthesis of cholesterol ([18]; LNCaP and MDA-MB-231 cells): decreased
synthesis of phospholipids and of triglycerides ([18]; LNCaP cells and MDA-MB-231 cells): affected
HMVEC tube formation ([19]; 10 uM): completely inhibited
human colon cancer cell growth in vivo [20]: strongly inhibiting
human prostate cancer cell growth in vivo [21]: strongly inhibiting
estrogenic effect [22]: week phytoestrogens
